Test results taken from patent publication US20150366199A1, “COMPOSITIONS COMPRISING GOUGEROTIN AND AN INSECTICIDE” (priority 2013, published 2015).
Like-named read-outs stand apart in the source and are kept apart here.

Key:
[1] = tested on: green peach aphid (Myzus persicae); assay: Myzus persicae - spray test (Chinese cabbage leaf-disks, Example 6); type: in vivo; settings: for Efficacy in % after 6d: mortality after 6 d; for Efficacy in % after 1d: mortality after 1 d
Description: (§1) Emulsifier: alkylaryl polyglycol ether

[2] = tested on: fall armyworm larvae (Spodoptera frugiperda); assay: Spodoptera frugiperda - spray test; settings: for Efficacy in % after 6d: mortality after 6 d; for Efficacy in % after 2d: mortality after 2 d
Description: Solvent: 78.0 parts by weight acetone • 1.5 parts by weight dimethylformamide
To produce a suitable preparation of NRRL B-50550, 1 part by weight of NRRL B-50550 75 WP is mixed with the stated amount of solvents and is diluted with water, containing an emulsifier concentration of 1000 ppm, to the desired concentration. Further test concentrations are prepared by dilution with emulsifier containing water.
Maize (Zea mais) leaf sections are sprayed with a preparation of the active ingredient of the desired concentration. Once dry, the leaf sections are infested with fall armyworm larvae (Spodoptera frugiperda).
After the specified period of time, mortality in % is determined 100% means all caterpillars have been killed and 0% means none of the caterpillars have been killed. The mortality values determined thus are recalculated using the Colby-formula.

[3] = tested on: mustard beetle larvae (Phaedon cochleariae); assay: Phaedon cochleariae - spray test; settings: for Efficacy in % after 6d: mortality after 6 d; for Efficacy in % after 2d: mortality after 2 d
Description: The expected efficacy of a given combination of two compounds is calculated as follows (see Colby, S. R., “Calculating Synergistic and antagonistic Responses of Herbicide Combinations”, Weeds 15, pp. 20-22, 1967):
Solvent: 78.0 parts by weight of acetone • • 1.5 parts by weight of dimethylformamide
To produce a suitable preparation of a NRRL B-50550, 1 part by weight of NRRL B-50550 75 WP was mixed with the stated amount of solvents and was diluted with water, containing an emulsifier concentration of 1000 ppm, to the desired concentration. Further test concentrations are prepared by dilution with emulsifier containing water.
Chinese cabbage (Brassica pekinensis) leaf-disks are sprayed with a preparation of the active ingredient of the desired concentration. Once dry, the leaf disks are infested with mustard beetle larvae (Phaedon cochleariae).
After the specified period of time, mortality in % is determined 100% means all beetle larvae have been killed and 0% means none of the beetle larvae have been killed. The mortality values determined thus are recalculated using the Colby-formula.

[4] = cited from earlier work
[5] = tested on: pin worm; settings: parasites on animals, such as pin worm, cited from earlier work
[6] = tested on: gram-positive, gram-negative bacteria and tubercule bacillus; settings: cited from earlier work
[7] = tested on: mites; settings: cited from earlier work
[8] = tested on: two spotted spidermite (Tetranychus urticae); assay: Tetranychus urticae - spray test, OP-resistant; type: in vivo; settings: mortality after 6 d
Description: as §1

[9] = tested on: green peach aphid (Myzus persicae); assay: Myzus persicae - spray test (pepper leaves, Example 8); type: in vivo; settings: 0.5 ppm

Molecule: CN/C(=N\[N+](=O)[O-])NCc1cnc(Cl)s1 [Clothianidin]
- Efficacy in % after 6d ([1]; 0.32 ppm): 0%

Molecule: N#Cc1nn(-c2c(Cl)cc(C(F)(F)F)cc2Cl)c(N)c1[S+]([O-])C(F)(F)F (stereo not drawn) [Fipronil]
- Efficacy in % after 6d ([2]; 16 ppm): 0%

Molecule: CC1(C)C(C=C(Cl)Cl)C1C(=O)OC(C#N)c1ccc(F)c(Oc2ccccc2)c1 (stereo not drawn) [β-Cyfluthrin, beta-Cyfluthrin]
- Efficacy in % after 6d ([1]; 1.6 ppm): 0%
- Efficacy in % after 6d ([3]; 1.6 ppm): 0%
- Efficacy in % after 6d ([2]; 1.6 ppm): 0%

Molecule: CNCC(=O)NC(CO)C(=O)NC1C(C(N)=O)OC(n2ccc(N)nc2=O)C(O)C1O [Gougerotin, 1-(4-Amino-2-oxo-1(2H)-pyrimidinyl)-1,4-dideoxy-4-[[N—(N-methylglycyl)-D-seryl]amino]-b-D-glucopyranuronamide]
- water solubility [4]: water soluble
- parasiticidal activity [5]: inhibitory effect on the ovulation of pin worms
- parasiticidal activity ([5]; listed as gougerotin): parasiticidal action
- antibacterial activity [6]: weak
- acaricidal (miticidal) effect [7]: acaricidal (miticidal) effect

Molecule: Spinetoram
- Efficacy in % after 2d ([2]; 0.64 ppm): 0%

Molecule: O=[N+]([O-])NC1=NCCN1Cc1ccc(Cl)nc1 [Imidacloprid]
- Efficacy in % after 6d ([8]; 2 ppm): 0%

Molecule: Cc1cc(C(F)(C(F)(F)F)C(F)(F)F)ccc1NC(=O)c1cccc(I)c1C(=O)NC(C)(C)CS(C)(=O)=O [Flubendiamide]
- Efficacy in % after 2d ([2]; 3.2 ppm): 33%

Molecule: CS/C(C)=N\OC(=O)N(C)SN(C)C(=O)O/N=C(\C)SC [Thiodicarb]
- Efficacy in % after 2d ([2]; 40 ppm): 0%

Molecule: N#C/N=C1\SCCN1Cc1ccc(Cl)nc1 [Thiacloprid]
- Efficacy in % after 2d ([9]; mortality after 2 d): 40%
- Efficacy in % after 3d ([9]; mortality after 3 d): 20%
- Efficacy in % after 7d ([9]; mortality after 7 d): 10%

Molecule: CNC(=O)c1cc(C#N)cc(C)c1NC(=O)c1cc(Br)nn1-c1ncccc1Cl [Cyantraniliprole]
- Efficacy in % after 6d ([1]; 0.64 ppm): 0%
- Efficacy in % after 6d ([1]; 3.2 ppm): 0%
- Efficacy in % after 1d ([1]; 16 ppm): 0%
- Efficacy in % after 6d ([3]; 0.64 ppm): 0%
- Efficacy in % after 6d ([8]; 80 ppm): 0%

Molecule: Cc1c(F)c(F)c(COC(=O)[C@@H]2[C@H](/C=C(\Cl)C(F)(F)F)C2(C)C)c(F)c1F (racemic) [Tefluthrin]
- Efficacy in % after 2d ([3]; 40 ppm): 0%

Molecule: CNC(=O)c1cc(Cl)cc(C)c1NC(=O)c1cc(Br)nn1-c1ncccc1Cl [Chlorantraniliprole]
- Efficacy in % after 1d ([1]; 3.2 ppm): 0%
- Efficacy in % after 6d ([8]; 16 ppm): 0%

Molecule: CNC(=O)c1cc(C#N)cc(C)c1NC(=O)c1cc(Cn2nnc(C(F)(F)F)n2)nn1-c1ncccc1Cl [1-(3-chloropyridin-2-yl)-N-[4-cyano-2-methyl-6-(methylcarbamoyl)phenyl]-3-{[5-(trifluoromethyl)-2H-tetrazol-2-yl]methyl}-1H-pyrazole-5-carboxamide]
- Efficacy in % after 6d ([3]; 0.128 ppm): 0%
- Efficacy in % after 2d ([3]; 0.64 ppm): 50%
- Efficacy in % after 6d ([2]; 0.64 ppm): 33%

Molecule: Spinosad
- Efficacy in % after 2d ([3]; 80 ppm): 50%
- Efficacy in % after 6d ([2]; 0.64 ppm): 0%

Molecule: CNC(=O)Oc1cc(C)c(SC)c(C)c1 [Methiocarb]
- Efficacy in % after 6d ([1]; 2000 ppm): 0%

Molecule: CC(c1ccc(C(F)(F)F)nc1)S(C)(=O)=NC#N (stereo not drawn) [Sulfoxaflor]
- Efficacy in % after 1d ([1]; 0.64 ppm): 0%

Molecule: Cc1cc(F)c(-n2nc(C(F)(F)F)nc2N)cc1[S+]([O-])CC(F)(F)F (stereo not drawn) [1-{2-fluoro-4-methyl-5-[(2,2,2-trifluorethyl)sulfinyl]phenyl}-3-(trifluoromethyl)-1H-1,2,4-triazol-5-amine]
- Efficacy in % after 6d ([8]; 3.2 ppm): 0%
